From US10857136B2, “Compounds for use in the prevention and/or treatment of non-alcoholic fat liver disease and non-alcoholic steatohepatitis” (SJT MOLECULAR RESEARCH, SL, priority 2017, dated 2020)

Key:
Type in all cases: in vivo
[1] = tested on: DIO-NASH mice (C57Bl/6J male mice); experiment: Total fat content in liver (morphometry, H&E), 8 weeks assay in DIO-NASH mice; details: 50 mg/kg, p.o., b.i.d., vs DIO-NASH vehicle
Text: (§1) The DIO-NASH mouse model is fed a high fat diet that results on non-alcoholic fat liver disease and are based on C57Bl/6J mice put on a 40% high fat diet prior to the assays. For the assessment of effect of the compounds of the invention in liver lipid content in non-alcoholic fat liver disease, 34 C57Bl/6J male mice (5-week-old at delivery), obtained from Janvier, France, were used. The DIO-NASH mice group were put on high fat diet (40% AMLN diet, D09100301 Research Diets, USA) and a control group (LEAN-CHOW) was put on a regular chow diet (Altromin 1324, Brogaarden, Denmark) for 35 weeks prior to the study.
The animals (kept in single housings) were checked minimum once daily where signs of abnormal behavior, abnormal locomotor activity, ataxia or clinical signs of disease (lack of grooming, raised fur, signs of pain upon handling, loss of excessive body-weight) were followed closely. […]
To assess the effect of compound 4a on hepatic lipid content in mice with non-alcoholic fat liver disease, DIO-NASH mice (C57Bl/6J male mice) were treated with a hydrochloride salt of compound 4a during 8 weeks (50 mg/kg, p.o., b.i.d.), versus a control of DIO-NASH mice treated with saline (0.9% NaCl) and versus LEAN-CHOW mice also treated with saline (0.9% NaCl), […]. Liver lipid content was determined by morphometry. […]

[2] = tested on: DIO-NASH mice (C57Bl/6J male mice); experiment: Triglycerides and cholesterol liver content, 8 weeks assay in DIO-NASH mice; details: 50 mg/kg, p.o., b.i.d., vs DIO-NASH vehicle
Text: as §1
To assess the effect of compound 4a on hepatic triglyceride or cholesterol content in animals with non-alcoholic fat liver disease, DIO-NASH mice (C57Bl/6J male mice) were treated with a hydrochloride salt of compound 4a during 8 weeks (50 mg/kg, p.o., b.i.d.), versus a pathological control of DIO-NASH mice and a non-pathological control LEAN-CHOW mice, both treated with the vehicle (0.9% NaCl). […]
The triglyceride content in liver was determined using the Triglyceride reagent (Cat. no. 22-045-795, Roche Diagnostics, Germany) on a Cobas™ C-501 autoanalyzer. Homogenized liver tissue was heated to 80-100° C. twice, centrifuged in a microcentrifuge and the triglyceride content was measured in the supernatant.

[3] = tested on: DIO-NASH mice (C57Bl/6J male mice); experiment: Differential gene expression analysis by RNAseq in liver of DIO-NASH mice
Procedure: The effect of the compounds of the invention in the development of liver fibrosis was also studied by differential gene expression analysis by RNAseq where DIO-NASH mice (C57Bl/6J male mice) were treated with a hydrochloride salt of compound 4a during 8 weeks (50 mg/kg, p.o., b.i.d.), versus a pathological control of DIO-NASH mice and a non-pathological control LEAN-CHOW mice, both treated with the vehicle (0.9% NaCl).
The animals were kept and examined under the same conditions were used as in example 2.2. The liver biopsies were also carried out under the same conditions as in example 2.2. The DIO-NASH mice group were put on high fat diet (40% AMLN diet, D09100301 Research Diets, USA) and a control group (LEAN-CHOW) was put on a regular chow diet (Altromin 1324, Brogaarden, Denmark) for 35 weeks prior to the study.
FIGS. 12 and 13 show the effect of treatment of DIO-NASH mice with a hydrochloride salt of compound 4a versus a control DIO-NASH mice group treated with vehicle and a LEAN-CHOW […] control group also treated with vehicle, in the expression of collagen genes which are fibrosis markers: collagen type I-alpha 1 (COL1A1) and alpha 2 (COL1A2), collagen type III alpha 1 (COL3A1), collagen V alpha 1 (COL5A1), alpha 2 (COL5A2) and alpha 3 (COL5A3), collagen type VI alpha 1 (COL6A1), alpha 2 (COL6A2) and alpha 3 (COL6A3).
Results are given as expression level in RPKM for each mice group, wherein RPKM (Reads per kilo base per million mapped reads) is a method of quantifying gene expression from RNA sequencing data by normalizing for […] and the number of sequencing reads.
Date expressed as mean±s.e.m. values from 6 animals. ***P<0.001 vs. NASH vehicle.

## COc1ccc(-c2nc(C(=O)NCCN)cc3c2[nH]c2ccccc23)cc1 [Compound 4a, N(-ethylamine)-1-benzosubstituted-β-carboline-3-carboxamide]
[1]
  steatosis in representative images of liver morphology (H&E): diminished the steatosis
[1]; p<0.001
  liver lipid content (steatosis) determined by morphometry: reduced liver lipid content
[2]
  liver cholesterol levels: reduced liver cholesterol levels
  liver triglyceride levels: reduced liver triglyceride levels
[3]; 50 mg p.o., b.i.d, 8 weeks
  expression of CD36 (lipid metabolism): decreased expression
  expression of Casp7 and IL18 (hepatocellular cell death): increased expression
  expression of GLUT4 (insulin signaling): increased expression
  expression of MAPK and AKT (insulin signaling): decreased expression
  expression of SQLE (lipid metabolism): increased expression
  fibrosis genes related to stellate cell activation, such as Col1a1, Col3a1 and TIMP1: reduction
  inflammation markers related to monocyte recruitment, such as CD68, CCR2, MAC-2: reduction
[3]; 50 mg/kg, p.o., b.i.d., 8 weeks
  TLR4, TGFB and TGFBR gene expression (inflammation signaling): reduction
[3]; 50 mg/kg, p.o., b.i.d., 8 weeks, vs DIO-NASH vehicle, P<0.001
  expression of collagen genes (COL1A1, COL1A2, COL3A1, COL5A1, COL5A2, COL5A3, COL6A1, COL6A2, COL6A3): significantly reduced the expression of the collagen genes
[3]; 8 weeks treatment, RNAseq
  number of genes regulated: more than 2000 genes
